In the NIST ThermoML archive (doi:10.1021/je060271a):

Conditions: 343.15 K, Liquid, Vibrating tube method

CCCC(=O)OCC(COC(=O)CCC)(COC(=O)CCC)COC(=O)CCC [pentaerythritol tetrabutyrate]
Conditions | mass density [kg/m3]
14185 kPa | 1019
14223 kPa | 1019.1
14263 kPa | 1019
14296 kPa | 1019.1
14334 kPa | 1019.1
14374 kPa | 1019.1
14412 kPa | 1019.1
14452 kPa | 1019.2
14485 kPa | 1019.2
14525 kPa | 1019.1
14564 kPa | 1019.1
14606 kPa | 1019.2
14639 kPa | 1019.3
14680 kPa | 1019.3
14721 kPa | 1019.3
14764 kPa | 1019.4
14805 kPa | 1019.4
14840 kPa | 1019.4
15093 kPa | 1019.6
15139 kPa | 1019.6
15180 kPa | 1019.6
15211 kPa | 1019.8
15248 kPa | 1019.7
15286 kPa | 1019.7
15317 kPa | 1019.7
15355 kPa | 1019.8
15392 kPa | 1019.8
15430 kPa | 1019.8
15469 kPa | 1019.9
15538 kPa | 1019.9
15616 kPa | 1020
15655 kPa | 1019.9
15688 kPa | 1020.1
15727 kPa | 1020.1
15769 kPa | 1020
15802 kPa | 1020.2
15842 kPa | 1020.2
15881 kPa | 1020.2
15922 kPa | 1020.2
15956 kPa | 1020.2
15997 kPa | 1020.2
16038 kPa | 1020.3
16079 kPa | 1020.2
16120 kPa | 1020.4
16154 kPa | 1020.3
16195 kPa | 1020.4
16239 kPa | 1020.3
16276 kPa | 1020.5
16318 kPa | 1020.4
16360 kPa | 1020.5
16403 kPa | 1020.5
16446 kPa | 1020.6
16489 kPa | 1020.5
16526 kPa | 1020.6
16570 kPa | 1020.6
16614 kPa | 1020.7
16659 kPa | 1020.6
16696 kPa | 1020.7
16741 kPa | 1020.8
16787 kPa | 1020.9
16833 kPa | 1020.9
16879 kPa | 1020.9
16918 kPa | 1021
16964 kPa | 1021
17012 kPa | 1020.9
17052 kPa | 1021
17100 kPa | 1021.1
17143 kPa | 1021.2
17186 kPa | 1021
17229 kPa | 1021.2
17265 kPa | 1021.1
17310 kPa | 1021.1
17355 kPa | 1021.3
17393 kPa | 1021.2
17439 kPa | 1021.3
17485 kPa | 1021.2
17525 kPa | 1021.4
17560 kPa | 1021.3
17590 kPa | 1021.4
17624 kPa | 1021.4
17660 kPa | 1021.5
17694 kPa | 1021.4
17730 kPa | 1021.5
17760 kPa | 1021.5
17796 kPa | 1021.6
17870 kPa | 1021.5
17900 kPa | 1021.5
17935 kPa | 1021.6
17972 kPa | 1021.8
18009 kPa | 1021.6
18039 kPa | 1021.7
18076 kPa | 1021.8
18113 kPa | 1021.7
18150 kPa | 1021.8
18187 kPa | 1021.7
18218 kPa | 1021.8
18256 kPa | 1021.9
18294 kPa | 1021.8
18332 kPa | 1022
18370 kPa | 1021.9
18402 kPa | 1021.9
18441 kPa | 1022
18479 kPa | 1022
18518 kPa | 1022.1
18552 kPa | 1022.2
18590 kPa | 1022.1
18630 kPa | 1022.1
18669 kPa | 1022.1
18703 kPa | 1022.1
18742 kPa | 1022.2
18784 kPa | 1022.2
18824 kPa | 1022.3
18864 kPa | 1022.3
18898 kPa | 1022.2
18938 kPa | 1022.4
18978 kPa | 1022.3
19020 kPa | 1022.4
19054 kPa | 1022.4
19096 kPa | 1022.5
19138 kPa | 1022.5
19216 kPa | 1022.5
19297 kPa | 1022.6
19340 kPa | 1022.6
19382 kPa | 1022.6
19425 kPa | 1022.6
19468 kPa | 1022.7
19504 kPa | 1022.8
19548 kPa | 1022.7
19591 kPa | 1022.9
19634 kPa | 1022.7
19679 kPa | 1022.9
19717 kPa | 1022.8
19761 kPa | 1022.8
19809 kPa | 1022.9
19854 kPa | 1022.9
19892 kPa | 1023
19938 kPa | 1023
19984 kPa | 1023.1
20022 kPa | 1023.2
20068 kPa | 1023.1
20115 kPa | 1023.2
20161 kPa | 1023.1
20200 kPa | 1023.2
20247 kPa | 1023.1
20294 kPa | 1023.1
20341 kPa | 1023.3
